Data reported in patent publication US9745311B2, “Substituted pyrrolo[2,3-b]pyrazines as FGFR inhibitors” (Incyte Corporation, priority 2012, dated 2017).
Read-outs that look alike come from different tables or passages of the source.

Columns and labels:
FGFR2 = FGFR2 (Homo sapiens (Human), UniProt P21802); assay: FGFR Enzymatic Assay (FGFR2); format: biochemical;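 further: FRET read-out of peptide phosphorylation by the purified kinase, with enzyme-free blank and uninhibited enzyme as controls, potency from a variable-slope sigmoidal dose-response fit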
Method: (§1) The inhibitor potency of compounds was measured in an enzyme assay that measures peptide phosphorylation using FRET measurements to detect product formation. Inhibitors were serially diluted in DMSO and a volume of 0.5 μL was transferred to the wells of a 384-well plate. For FGFR3, a 10 μL volume of FGFR3 enzyme (Millipore) diluted in assay buffer (50 mM HEPES, 10 mM MgCl2, 1 mM EGTA, 0.01% Tween-20, 5 mM DTT, pH 7.5) was added to the plate and pre-incubated for 5-10 minutes. Appropriate controls (enzyme blank and enzyme with no inhibitor) were included on the plate. […] The plate was incubated at 25° C. for 1 hr. […] The plate was allowed to equilibrate for ˜1 hr before scanning the wells on a PheraStar plate reader.
(§2) GraphPad prism3 was used to analyze the data. The IC50 values were derived by fitting the data to the equation for a sigmoidal dose-response with a variable slope. Y=Bottom+(Top−Bottom)/(1+10^((Log IC50−X)*HillSlope)) where X is the logarithm of concentration and Y is the response.

FGFR3 enzyme (Millipore) [1] = biological target: T1, FGFR3 enzyme (Millipore) (Homo sapiens (Human), UniProt P22607); assay: biochemical
FGFR1 = FGFR1 (Homo sapiens (Human), UniProt P11362); assay: FGFR Enzymatic Assay (FGFR1); format: biochemical; conditions: enzyme 0.02 nM, ATP 210 μM
Method: as §1, §2

FGFR3 enzyme (Millipore) [2] = biological target: T1, FGFR3 enzyme (Millipore); conditions: read-out: FGFR3 IC50, ATP 140 μM
[3] = enzyme 0.01 nM, ATP 100 μM, read-out: FGFR2 IC50

Sequence of FGFR1 (P11362 22-822): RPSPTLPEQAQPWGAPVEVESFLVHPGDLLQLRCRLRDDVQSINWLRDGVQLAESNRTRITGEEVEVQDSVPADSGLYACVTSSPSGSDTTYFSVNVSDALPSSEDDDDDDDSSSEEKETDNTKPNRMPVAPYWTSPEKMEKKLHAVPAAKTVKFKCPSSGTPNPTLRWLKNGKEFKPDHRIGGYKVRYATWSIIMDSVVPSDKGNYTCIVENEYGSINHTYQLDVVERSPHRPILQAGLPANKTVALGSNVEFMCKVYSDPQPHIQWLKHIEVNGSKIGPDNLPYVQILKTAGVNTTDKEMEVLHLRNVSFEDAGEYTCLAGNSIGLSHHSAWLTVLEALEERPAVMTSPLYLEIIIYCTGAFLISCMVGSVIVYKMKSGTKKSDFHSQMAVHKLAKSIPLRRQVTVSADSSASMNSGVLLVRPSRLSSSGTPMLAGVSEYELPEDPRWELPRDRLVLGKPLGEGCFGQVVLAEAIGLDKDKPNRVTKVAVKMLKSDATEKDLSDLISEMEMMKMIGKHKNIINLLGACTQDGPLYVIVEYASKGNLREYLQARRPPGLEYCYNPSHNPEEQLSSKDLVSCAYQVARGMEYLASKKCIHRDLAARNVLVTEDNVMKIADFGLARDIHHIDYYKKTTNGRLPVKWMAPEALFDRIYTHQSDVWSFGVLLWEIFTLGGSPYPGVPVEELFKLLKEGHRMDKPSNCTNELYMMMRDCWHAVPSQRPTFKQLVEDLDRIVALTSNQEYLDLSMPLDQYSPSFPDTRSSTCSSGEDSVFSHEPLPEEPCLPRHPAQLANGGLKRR
Sequence of FGFR2 (P21802 22-821): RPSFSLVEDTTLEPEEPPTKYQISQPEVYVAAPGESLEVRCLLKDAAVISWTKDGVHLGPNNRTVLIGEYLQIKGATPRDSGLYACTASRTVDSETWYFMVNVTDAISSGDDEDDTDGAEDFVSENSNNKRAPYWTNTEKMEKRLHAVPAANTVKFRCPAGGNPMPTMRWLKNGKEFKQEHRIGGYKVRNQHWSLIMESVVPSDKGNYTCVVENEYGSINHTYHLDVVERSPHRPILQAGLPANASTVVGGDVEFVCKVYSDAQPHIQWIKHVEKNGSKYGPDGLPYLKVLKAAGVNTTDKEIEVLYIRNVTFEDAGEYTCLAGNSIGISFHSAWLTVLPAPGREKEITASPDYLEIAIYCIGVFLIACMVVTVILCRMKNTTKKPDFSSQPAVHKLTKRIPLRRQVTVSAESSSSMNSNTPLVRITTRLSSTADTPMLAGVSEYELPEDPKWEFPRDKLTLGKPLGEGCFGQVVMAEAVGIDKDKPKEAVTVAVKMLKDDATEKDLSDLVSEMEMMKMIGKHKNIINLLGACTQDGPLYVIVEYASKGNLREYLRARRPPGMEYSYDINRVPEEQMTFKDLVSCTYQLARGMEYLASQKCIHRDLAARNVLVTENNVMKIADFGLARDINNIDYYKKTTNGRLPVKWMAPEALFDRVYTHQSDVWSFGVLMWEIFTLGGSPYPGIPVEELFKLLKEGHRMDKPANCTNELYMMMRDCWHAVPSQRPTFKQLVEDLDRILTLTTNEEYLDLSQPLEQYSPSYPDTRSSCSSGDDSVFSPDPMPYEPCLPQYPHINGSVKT
T1 sequence (P22607 23-806): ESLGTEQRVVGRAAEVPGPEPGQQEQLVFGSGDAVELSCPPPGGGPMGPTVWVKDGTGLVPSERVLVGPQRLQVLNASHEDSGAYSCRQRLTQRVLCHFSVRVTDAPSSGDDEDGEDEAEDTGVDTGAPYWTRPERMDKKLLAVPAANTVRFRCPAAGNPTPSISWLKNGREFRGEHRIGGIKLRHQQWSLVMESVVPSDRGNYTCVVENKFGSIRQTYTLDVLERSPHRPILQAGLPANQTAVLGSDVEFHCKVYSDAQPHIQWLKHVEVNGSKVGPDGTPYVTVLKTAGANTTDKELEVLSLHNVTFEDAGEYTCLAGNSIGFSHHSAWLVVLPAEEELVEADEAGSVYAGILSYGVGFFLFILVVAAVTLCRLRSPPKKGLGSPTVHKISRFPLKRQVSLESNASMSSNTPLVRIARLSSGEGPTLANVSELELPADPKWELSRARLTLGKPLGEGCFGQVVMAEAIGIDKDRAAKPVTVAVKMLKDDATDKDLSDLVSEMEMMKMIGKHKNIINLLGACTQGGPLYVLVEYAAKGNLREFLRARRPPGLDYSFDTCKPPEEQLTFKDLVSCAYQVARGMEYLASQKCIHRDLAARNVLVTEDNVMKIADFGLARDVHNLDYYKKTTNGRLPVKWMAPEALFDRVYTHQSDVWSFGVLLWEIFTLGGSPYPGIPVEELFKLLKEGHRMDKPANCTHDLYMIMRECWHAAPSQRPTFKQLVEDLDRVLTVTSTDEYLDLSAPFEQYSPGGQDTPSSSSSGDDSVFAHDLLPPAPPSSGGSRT

SMILES | IC50 (FGFR2) [nM] | IC50 (FGFR3 enzyme (Millipore) [1]) [nM] | IC50 (FGFR1) [nM] | IC50 (FGFR2; [3]) [nM] | IC50 (FGFR3 enzyme (Millipore) [2]; class symbols) [nM] | IC50 (FGFR3 enzyme (Millipore) [2]; numeric bounds) [nM]
COc1cc(CCc2cnc3[nH]c(-c4c(F)cccc4F)cc3n2)cc(OC)c1 [Example 4, 6-(2,6-difluorophenyl)-2-(3,5-dimethoxyphenethyl)-5H-pyrrolo[2,3-b]pyrazine] | 100 to 500 | 500 to 2700 | < 100 |  |  | 
COc1cc(CCc2cnc3[nH]c(-c4ccc(NC(C)=O)cc4)cc3n2)cc(OC)c1 [Example 6, N-(4-{2-[2-(3,5-dimethoxyphenyl)ethyl]-5H-pyrrolo[2,3-b]pyrazin-6-yl}phenyl)acetamide] |  | 100 to 500 | < 100 | < 100 |  | 
COc1cc(CCc2cnc3[nH]c(-c4ccc(C(=O)N(C)C)cc4)cc3n2)cc(OC)c1 [Example 7, 4-{2-[2-(3,5-dimethoxyphenyl)ethyl]-5H-pyrrolo[2,3-b]pyrazin-6-yl}-N,N-dimethylbenzamide] |  | 100 to 500 | < 100 | < 100 |  | 
COc1cc(CCc2cnc3[nH]c(-c4ccc(C(F)(F)F)cc4)cc3n2)cc(OC)c1 [Example 8, 2-[2-(3,5-dimethoxyphenyl)ethyl]-6-[4-(trifluoromethyl)phenyl]-5H-pyrrolo[2,3-b]pyrazine] | 100 to 500 | 100 to 500 | < 100 |  |  | 
COc1cc(CCc2cnc3[nH]c(-c4ccccc4C)cc3n2)cc(OC)c1 [Example 9, 2-[2-(3,5-dimethoxyphenyl)ethyl]-6-(2-methylphenyl)-5H-pyrrolo[2,3-b]pyrazine] | 100 to 500 | 500 to 2700 | < 100 |  |  | 
COc1cc(CCc2cnc3[nH]c(-c4ccccc4C#N)cc3n2)cc(OC)c1 [Example 10, 2-{2-[2-(3,5-dimethoxyphenyl)ethyl]-5H-pyrrolo[2,3-b]pyrazin-6-yl}benzonitrile] |  | 500 to 2700 | < 100 | < 100 |  | 
COc1cc(CCc2cnc3[nH]c(-c4ccc(CC#N)cc4)cc3n2)cc(OC)c1 [Example 14, (4-{2-[2-(3,5-dimethoxyphenyl)ethyl]-5H-pyrrolo[2,3-b]pyrazin-6-yl}phenyl)acetonitrile] |  | 100 to 500 | < 100 | < 100 |  | 
COc1cc(CCc2cnc3[nH]c(-c4ccc(N5CCN(C)CC5)nc4)cc3n2)cc(OC)c1 [Example 16, 2-[2-(3,5-dimethoxyphenyl)ethyl]-6-[6-(4-methylpiperazin-1-yl)pyridin-3-yl]-5H-pyrrolo[2,3-b]pyrazine] |  | 100 to 500 | < 100 | < 100 |  | 
CNC(=O)c1ccc(-c2cc3nc(CCc4cc(OC)cc(OC)c4)cnc3[nH]2)cn1 [Example 17, 5-{2-[2-(3,5-dimethoxyphenyl)ethyl]-5H-pyrrolo[2,3-b]pyrazin-6-yl}-N-methylpyridine-2-carboxamide] |  | 100 to 500 | < 100 | < 100 |  | 
COc1cc(CCc2cnc3[nH]c(-c4cncc(C(=O)N5CCOCC5)c4)cc3n2)cc(OC)c1 [Example 18, 2-[2-(3,5-dimethoxyphenyl)ethyl]-6-[5-(morpholin-4-ylcarbonyl)pyridin-3-yl]-5H-pyrrolo[2,3-b]pyrazine] |  | 500 to 2700 | < 100 | < 100 |  | 
COc1cc(OC)c(F)c(CCc2cnc3[nH]c(-c4cnn(CCN(C)C)c4)cc3n2)c1F [Example 87, 2-(4-(2-(2,6-difluoro-3,5-dimethoxyphenethyl)-5H-pyrrolo[2,3-b]pyrazin-6-yl)-1H-pyrazol-1-yl)-N,N-dimethylethanamine] |  |  | < 100 | < 100 | < 100 | 
COc1cc(OC)c(F)c(CCc2cnc3[nH]c(-c4cnn(CC(C)(C)O)c4)cc3n2)c1F [Example 88, 1-(4-(2-(2,6-difluoro-3,5-dimethoxyphenethyl)-5H-pyrrolo[2,3-b]pyrazin-6-yl)-1H-pyrazol-1-yl)-2-methylpropan-2-ol] |  |  | < 100 | < 100 | < 100 | 
CNC(=O)c1cc2nc(CCc3c(F)c(OC)cc(OC)c3F)cnc2[nH]1 [Example 89, 2-(2,6-difluoro-3,5-dimethoxyphenethyl)-N-methyl-5H-pyrrolo[2,3-b]pyrazine-6-carboxamide] |  |  | < 100 | < 100 |  | > 400
